Reference: paper PMC4747383, “Design of a peptidic inhibitor that targets the dimer interface of a prototypic galectin” (Oncotarget, 2015)

What was measured:
[1] = test system: T cell; parameters: method as in PMID 25277199, PMID 24134186; settings: ref [38], [50]; cited from earlier work
[2] = test system: recombinant hGal-7; assay: Disruption of hGal-7 homodimers, native gel electrophoresis/Western blot; assay type: biochemical, human; settings: for disruption of hGal-7 homodimers by biotinylated peptide: 0.5 μM hGal-7, 20 mM potassium phosphate pH 7.1, 60 min at 4°C, low SDS-PAGE Western blot, representative of two independent experiments
Excerpt: To measure the ability of the peptides to disrupt the formation of hGal-7 dimers, we used mild denaturing native gel electrophoresis, a commonly used approach to visualize monomer-dimer equilibrium (Fig. 1A and Supplementary Fig. S1). […] This specificity at disrupting hGal-7 dimer formation is provided by distinct three-dimensional arrangements between otherwise very similar galectin homologues. Indeed, while all monomeric galectins reveal identical topologies, dimer formation in hGal-7 proceeds through a “back-to-back” topology of the monomers while other galectins, including hGal-1 and hGal-2, adopt a “side-by-side” structural arrangement (Fig. 1B). This structural organization provides additional means to specifically target and disrupt galectin function.
Incubation of the recombinant B. hGal-1 and C. hGal-2 with hGal-7(129–135) was performed in the same potassium phosphate buffer. The effect of hGal-7(129–135) on the monomeric and dimeric forms of hGal-7/hGal-1/hGal-2 was assessed by Western blotting in native conditions with respective antibodies. The hGal-1/hGal-2 films were overexposed. PACAP28–38 was the control peptide used in order to ensure the specificity of hGal-7(129–135). Recombinant hGal-7 (0.5 μM) was also incubated with increasing concentrations of hGal-7(129–135) in 0.1 mM D. lactose or E. LacNac solutions. Results are representative of three independent experiments.
Human Gal-7 cDNA was cloned into pET-22b(+) using NdeI and HindIII restriction enzymes. Human pET-Gal-1 vector was generously donated by Dr. S. Sato (McGill University, QC, Canada). The proteins were produced in E. coli BL21 (DE3) cells at 37°C. Isopropyl β-D-1-thiogalactopyranoside (IPTG) (1 mM) was added to the bacterial culture at OD600nm = 0.6–0.7 and then incubated for 4 h at 37°C to allow protein production. Bacterial pellets were resuspended in lysis buffer (0.7 mg/mL lysozyme, 10 mM Tris pH 8, 100 mM NaCl, 1 mM EDTA, 1 mM DTT and a protease inhibitor cocktail) and then incubated for 1 h at 37°C prior to centrifugation for 30 min at 15,000 × g (4°C). The supernatant was then filtered with 500 mL bottle top filter ([…]) (Corning, New York, NY, USA) and then ran through a lactose-agarose column (Sigma, St. Louis, MO, USA). The protein was eluted in 1 mL fractions with 150 mM lactose solution. Purified fractions were analyzed by SDS-PAGE. The hGal-7 was then concentrated and purified using Centrifugal filter units (Amicon Ultra-15, 10K) (EMD, Millipore, Etobicoke, ON) in 20 mM potassium phosphate at pH 7.1. All subsequent experiments with the recombinant proteins were performed in the same buffer solution unless mentioned otherwise. Brilliant Coomassie blue was purchased from BioRad (Bio-Rad Laboratories, Mississauga, ON, Canada). The recombinant protein hGal-2 was purchased from MyBiosource (San Diego, CA, USA). […]
gaI-7 (0.5 μM) was incubated with increasing concentrations of biotin-labeled hGaI-7129–135 in 20 mM potassium phosphate buffer (pH 7.1) for 60 min at 4°C beforeWestern blot analysis in low SDS-PAGE using an anti-gaI-7 antibody. B. Similar experiments were carried out using recombinant human B. gaI-1 and C. gaI-2. Results are representative of two independent experiments.
(also on this page, place not known: www.impactjournals.com/oncotarget/ Oncotarget, Materials 2015 Supplementary hGaI-7 129–135.)

[3] = test system: hGal-2; assay: Binding to hGal-2; parameters: species or system human; settings: biotinylated peptide; Supplementary Fig. S2 quoted
[4] = test system: recombinant hGal-1; settings: hGal-1 10 μg/ml coated; unlabeled peptide (1 mM) 60 min, then biotin-labeled peptide 120 min, room temperature; Streptavidin R-phycoerythrin fluorescence; three independent experiments
[5] = test system: recombinant hGal-7; assay: Solid phase fluorescent binding assay on hGal-7; parameters: species or system human; settings: hGal-7 10 μg/ml coated, unlabeled peptide (1 mM) 60 min, then biotin-labeled peptide 120 min, room temperature, Streptavidin R-phycoerythrin fluorescence, three independent experiments
Excerpt: Results are representative of three independent experiments. Error bars represent standard deviation.

## Gal-7: human galectin-7
[1]
  effects on T cell functions and survival: strong cytotoxic and inhibitory effects on T cell functions and survival

## H-IRPGTVLRIRGLV-NH2 [hGal-7(13–25), peptide corresponding to hGal-7 segment between residues 13–25]
[2]; 0.5 μM recombinant hGal-7, 20 mM potassium phosphate pH 7.1, 1 h at 4°C, native PAGE, Western blot
  disruption of hGal-7 homodimers (in words): less potent than hGal-7(129–135) to disrupt hGal-7 homodimers

## biotinylated hGal-7(129–135): biotinylated version of hGal-7(129–135), Biotin-NHS coupled via Ahx linker
[2]
  disruption of hGal-7 homodimers by biotinylated peptide: still capable of specifically inhibiting the formation of hGal-7 homodimers
[2]; listed as biotin-labeled hGaI-7129–135
  disruption of hGal-7 homodimers by biotinylated peptide: Disruption of hGaI-7 dimer
[3]
  binding to hGal-2: not hGal-1 or hGal-2
[4]
  binding to immobilized hGal-1: not hGal-1 or hGal-2
[5]
  binding to immobilized hGal-7: could bind hGal-7
[5]; listed as biotin-labeled hGal-7(129–135)
  binding to immobilized hGal-7: dose-dependent interaction
